In publication PMC5584945, “Evaluation of robenidine analog NCL195 as a novel broad-spectrum antibacterial agent” (PLoS ONE, 2017):
Converted amounts (≈) assume the structure as drawn. Like-named read-outs stand apart in the source and are kept apart here.

Key:
[1] = system: S. pneumoniae; test: MIC, broth micro-dilution (CLSI); format: cell-based, Streptococcus pneumoniae; settings: for MIC90 / MIC / MIC50: Streptococcus pneumoniae
[2] = system: Enterococcus faecalis ATCC 29212; test: MIC, broth micro-dilution (CLSI), control strain; format: cell-based
Description: MICs for NCL812 and its analogs (serial two-fold dilutions commencing at 128 μg/ml) were determined (in duplicate) in round bottom 96-well microtitre trays (Sarstedt 82.1582.001), using the broth micro-dilution method recommended by the Clinical and Laboratory Standards Institute (CLSI). […] MIC50, MIC90 and MIC range for NCL812, NCL195 and NCL219 were calculated against each S. pneumoniae, S. aureus or VRE isolate. To assess the potential activity of NCL195 against Gram-negative bacteria, MICs against Acinetobacter spp, E. coli, K. pneumoniae, P. aeruginosa, Proteus spp and Neisseria meningitidis were performed in the presence or absence of 0.08 mM-20 mM EDTA in a standard checkerboard assay.

[3] = system: S. aureus Xen29; test: Time-dependent killing assay; format: cell-based, Staphylococcus aureus; settings: 4× MIC
Description: Time kill assays were performed (in duplicate) essentially as described previously with slight modifications. Briefly, a few colonies of luminescent S. pneumoniae strain D39LUX or luminescent S. aureus ATCC 12600 (Xen29) from an overnight HBA were emulsified in normal saline and adjusted to A600 nm = 0.10 (equivalent to approx. 5 × 10^7 c.f.u. per ml) and the bacterial suspension further diluted 1:20 in saline. […] The compounds were serially diluted in 100% DMSO at 100× the final desired concentration and 100 μl of appropriate concentrations added to each 10 ml preparation. Duplicate cultures were incubated at 37°C (+ 5% CO2 for S. pneumoniae D39), with samples withdrawn at 0, 0.5, 1, 2, 4, 6, 8 and 24 h, serially diluted 10-fold and plated on HBA overnight at 37°C (+ 5% CO2 for S. pneumoniae D39) for bacterial enumeration.

[4] = Microsomal metabolic stability; format: in vitro ADME; settings: for microsomal CLint at 0.4 μg/ml / half-life at 0.4 μg/ml: liver microsomes, pH 7.4; for microsomal CLint at 0.4 μg/ml: read-out: CLINT; for Predicted EH: hepatic extraction ratio; for Predicted CLblood: microsome-predicted; for half-life at 0.4 μg/ml: 0.4 μg/ml compound, 0.4 mg/ml protein, NADPH
Description: The metabolic stability assay was performed by incubating 0.4 μg/ml of each test compound with human and mouse liver microsomes (Xenotech, Lot# 1210057 and 1310211, respectively) suspended in 0.1 M pH 7.4 phosphate buffer at 37°C and 0.4 mg/ml protein concentration. The metabolic reaction was initiated by the addition of an NADPH-regenerating system (i.e. NADPH is the cofactor required for CYP450-mediated metabolism) and quenched at various time points over a 60 min incubation period by the addition of acetonitrile containing diazepam as internal standard. Control samples (containing no NADPH) were included (and quenched at 2, 30 and 60 min) to monitor for potential degradation in the absence of cofactor. Test compound concentration vs time data were fitted to an exponential decay function to determine the first-order rate constant for substrate depletion. This was used to calculate a degradation half-life (T1/2), in vitro intrinsic clearance (CLINT), microsome-predicted blood clearance (CLblood) and a microsome-predicted hepatic extraction ratio (EH) according to the in vitro half-life method of Obach[53].

[5] = system: Hep G2; test: Real-time cell viability, RealTime-Glo MT; format: cell-based, human; settings: 2 or 8 μg/ml, up to 20 h post-treatment
[6] = system: MDBK; test: Real-time cell viability, RealTime-Glo MT; format: cell-based, bovine; settings: 2 or 8 μg/ml, up to 20 h post-treatment
Description: (§1) In order to ensure minimal off target mammalian cell cytotoxicity, we assayed NCL812, NCL195 and NCL219 for in vitro cytotoxicity using a panel of adherent mammalian cell lines: Caco-2 (human colorectal adenocarcinoma cell line), HEL 299 (non-cancerous human lung fibroblast cell line), Hep G2 (human hepatocellular carcinoma cell line), MDBK (normal bovine kidney cell line) and MCF7 (human mammary gland adenocarcinoma cell line). Cell lines were maintained in Dulbecco’s Modified Eagle’s Medium (DMEM; […] After 24 h incubation, media was removed, washed once with medium without antibiotics and fresh medium supplemented with 10% (vol/vol) FBS was added. […] Following exposure for 24 h, WST-1 reagent was added to each well at a final concentration of 10%. […] The IC50 value for each compound against each cell line was determined via non-linear regression (three parameters) using GraphPad Prism v6 software. The robustness of assays was confirmed with selected cell lines (Hep G2 and MDBK) seeded onto a 96–well Microwell Nunclon Delta Surface plate (Thermo Scientific Nunc; Cat No: 136101) at 5 × 10^4 cells per well.

[7] = system: panel of mammalian cell lines (Caco-2, HEL 299, Hep G2, MDBK, MCF7); test: In vitro cytotoxicity, WST-1, all cell lines tested; format: cell-based; settings: lower bound over all the cell lines tested
Description: as §1

[8] = S1 Table isolates, 5% FBS + 3% washed RBC
[9] = ATCC6303, ATCC 6303 (serotype 3), 5% FBS + 3% washed RBC
[10] = D39/D39LUX (serotype 2), 5% FBS
[11] = D39/D39LUX (serotype 2), 10% FBS

CCCCCCCCCC(=O)N[C@@H](Cc1c[nH]c2ccccc12)C(=O)N[C@H](CC(N)=O)C(=O)N[C@@H](CC(=O)O)C(=O)N[C@@H]1C(=O)NCC(=O)N[C@@H](CCCN)C(=O)N[C@@H](CC(=O)O)C(=O)N[C@H](C)C(=O)N[C@@H](CC(=O)O)C(=O)NCC(=O)N[C@H](CO)C(=O)N[C@@H]([C@H](C)CC(=O)O)C(=O)N[C@@H](CC(=O)c2ccccc2N)C(=O)O[C@@H]1C [Daptomycin, daptomycin]
MIC range [1, 8]: 0.125 to 0.5 µg/mL | MIC90 ([1]; 21 isolates): 0.5 µg/mL (≈ 0.309 µM) | MIC ([1]; A66.1 (serotype 3), 5% FBS): 0.25 µg/mL (≈ 0.154 µM) | MIC [1, 9]: 0.25 µg/mL | MIC [1, 10]: 0.25 µg/mL (≈ 0.154 µM) | MIC [1, 11]: 0.25 µg/mL (≈ 0.154 µM) | MIC ([1]; EF3030 (serotype 19F), 5% FBS): 0.25 µg/mL (≈ 0.154 µM) | MIC ([1]; L82016 (serotype 6B), 5% FBS): 0.25 µg/mL (≈ 0.154 µM) | MIC ([1]; P9 (serotype 6A), 5% FBS): 0.25 µg/mL (≈ 0.154 µM) | MIC ([1]; P21 (serotype 3), 5% FBS): 0.25 µg/mL (≈ 0.154 µM) | MIC50 ([1]; S1 Table isolates, 5% FBS): 0.25 µg/mL (≈ 0.154 µM) | MIC90 ([1]; S1 Table isolates, 5% FBS): 0.25 µg/mL (≈ 0.154 µM) | MIC ([1]; TIGR4 (serotype 4), 5% FBS): 0.25 µg/mL (≈ 0.154 µM) | MIC ([1]; WCH16 (serotype 6A), 5% FBS): 0.25 µg/mL (≈ 0.154 µM) | MIC ([1]; WCH43 (serotype 4), 5% FBS): 0.25 µg/mL (≈ 0.154 µM) | MIC ([1]; WCH46 (serotype 4), 5% FBS): 0.125 µg/mL (≈ 0.0771 µM) | MIC ([1]; WCH57 (serotype 8), 5% FBS): 0.25 µg/mL (≈ 0.154 µM) | MIC ([1]; WCH77 (serotype 5), 5% FBS): 0.5 µg/mL (≈ 0.309 µM) | MIC ([1]; WCH86 (serotype 4), 5% FBS): 0.125 µg/mL (≈ 0.0771 µM) | MIC ([1]; WCH89 (serotype 7), 5% FBS): 0.5 µg/mL (≈ 0.309 µM) | MIC ([1]; WCH92 (serotype 4), 5% FBS): 0.125 µg/mL (≈ 0.0771 µM) | MIC ([1]; WCH137 (serotype 6A), 5% FBS): 0.125 µg/mL (≈ 0.0771 µM) | MIC ([1]; WCH158 (serotype 19F), 5% FBS): 0.125 µg/mL (≈ 0.0771 µM) | MIC ([1]; WCH184 (serotype 19F), 5% FBS): 0.25 µg/mL (≈ 0.154 µM) | MIC ([1]; WCH211 (serotype 11), 5% FBS): 0.25 µg/mL (≈ 0.154 µM) | MIC ([1]; WU2 (serotype 3), 5% FBS): 0.125 µg/mL (≈ 0.0771 µM) | MIC ([2]; ATCC29212, 10% FBS): 2 µg/mL | MIC ([2]; ATCC29212, absence of FBS): 2 µg/mL | Time to clear all Xen29 [3]: 1 h

C/C(=N\NC(=N)N/N=C(\C)c1ccc(C(C)(C)C)cc1)c1ccc(C(C)(C)C)cc1 [NCL219, (E)-N'-((E)-1-(4-(tert-butyl)phenyl)ethylidene)-2-(1-(4-(tert-butyl)phenyl)ethylidene)hydrazine-1-carboximidhydrazide]
MIC range ([1]; 21 isolates): 1 to 8 µg/mL | MIC range [1, 8]: 1 to 8 µg/mL | MIC range ([1]; S1 Table isolates, 10% FBS + 3% washed RBC): 1 to 8 µg/mL | MIC ([1]; A66.1 (serotype 3), 5% FBS): 4 µg/mL (≈ 9.86 µM) | MIC ([1]; A66.1 (serotype 3), 10% FBS): 4 µg/mL (≈ 9.86 µM) | MIC [1, 9]: 1 µg/mL | MIC ([1]; ATCC6303, ATCC 6303 (serotype 3), 10% FBS + 3% washed RBC): 1 µg/mL | MIC [1, 10]: 4 µg/mL (≈ 9.86 µM) | MIC [1, 11]: 4 µg/mL (≈ 9.86 µM) | MIC ([1]; L82016 (serotype 6B), 5% FBS): 2 µg/mL (≈ 4.93 µM) | MIC ([1]; L82016 (serotype 6B), 10% FBS): 2 µg/mL (≈ 4.93 µM) | MIC ([1]; P9 (serotype 6A), 5% FBS): 4 µg/mL (≈ 9.86 µM) | MIC ([1]; P9 (serotype 6A), 10% FBS): 4 µg/mL (≈ 9.86 µM) | MIC ([1]; P21 (serotype 3), 5% FBS): 4 µg/mL (≈ 9.86 µM) | MIC ([1]; P21 (serotype 3), 10% FBS): 4 µg/mL (≈ 9.86 µM) | MIC50 ([1]; S1 Table isolates, 5% FBS): 4 µg/mL (≈ 9.86 µM) | MIC90 ([1]; S1 Table isolates, 5% FBS): 4 µg/mL (≈ 9.86 µM) | MIC50 ([1]; S1 Table isolates, 10% FBS): 4 µg/mL (≈ 9.86 µM) | MIC90 ([1]; S1 Table isolates, 10% FBS): 8 µg/mL (≈ 19.7 µM) | MIC ([1]; TIGR4 (serotype 4), 5% FBS): 2 µg/mL (≈ 4.93 µM) | MIC ([1]; TIGR4 (serotype 4), 10% FBS): 2 µg/mL (≈ 4.93 µM) | MIC ([1]; WCH16 (serotype 6A), 5% FBS): 2 µg/mL (≈ 4.93 µM) | MIC ([1]; WCH16 (serotype 6A), 10% FBS): 2 µg/mL (≈ 4.93 µM) | MIC ([1]; WCH43 (serotype 4), 5% FBS): 2 µg/mL (≈ 4.93 µM) | MIC ([1]; WCH43 (serotype 4), 10% FBS): 2 µg/mL (≈ 4.93 µM) | MIC ([1]; WCH46 (serotype 4), 5% FBS): 4 µg/mL (≈ 9.86 µM) | MIC ([1]; WCH46 (serotype 4), 10% FBS): 4 µg/mL (≈ 9.86 µM) | MIC ([1]; WCH57 (serotype 8), 5% FBS): 4 µg/mL (≈ 9.86 µM) | MIC ([1]; WCH57 (serotype 8), 10% FBS): 4 µg/mL (≈ 9.86 µM) | MIC ([1]; WCH86 (serotype 4), 5% FBS): 4 µg/mL (≈ 9.86 µM) | MIC ([1]; WCH86 (serotype 4), 10% FBS): 4 µg/mL (≈ 9.86 µM) | MIC ([1]; WCH89 (serotype 7), 5% FBS): 8 µg/mL (≈ 19.7 µM) | MIC ([1]; WCH89 (serotype 7), 10% FBS): 4 µg/mL (≈ 9.86 µM) | MIC ([1]; WCH92 (serotype 4), 5% FBS): 4 µg/mL (≈ 9.86 µM) | MIC ([1]; WCH92 (serotype 4), 10% FBS): 4 µg/mL (≈ 9.86 µM) | MIC ([1]; WCH137 (serotype 6A), 5% FBS): 4 µg/mL (≈ 9.86 µM) | MIC ([1]; WCH137 (serotype 6A), 10% FBS): 4 µg/mL (≈ 9.86 µM) | MIC ([1]; WCH158 (serotype 19F), 5% FBS): 8 µg/mL (≈ 19.7 µM) | MIC ([1]; WCH158 (serotype 19F), 10% FBS): 8 µg/mL (≈ 19.7 µM) | MIC ([1]; WCH184 (serotype 19F), 5% FBS): 2 µg/mL (≈ 4.93 µM) | MIC ([1]; WCH184 (serotype 19F), 10% FBS): 2 µg/mL (≈ 4.93 µM) | MIC ([1]; WCH211 (serotype 11), 5% FBS): 4 µg/mL (≈ 9.86 µM) | MIC ([1]; WCH211 (serotype 11), 10% FBS): 4 µg/mL (≈ 9.86 µM) | MIC ([1]; WU2 (serotype 3), 5% FBS): 4 µg/mL (≈ 9.86 µM) | MIC ([1]; WU2 (serotype 3), 10% FBS): 4 µg/mL (≈ 9.86 µM) | MIC ([2]; ATCC29212, 10% FBS): 8 µg/mL | MIC ([2]; ATCC29212, absence of FBS): 2 µg/mL | microsomal CLint at 0.4 μg/ml ([4]; human): 94 µL/min/mg | Predicted EH ([4]; human): 0.79 | Predicted CLblood ([4]; human): 16 mL/min/kg | half-life at 0.4 μg/ml ([4]; human): 18 min | half-life at 0.4 μg/ml ([4]; mouse): 14 min | microsomal CLint at 0.4 μg/ml ([4]; mouse): 121 µL/min/mg | Predicted EH ([4]; mouse): 0.72 | Predicted CLblood ([4]; mouse): 87 mL/min/kg | Effect on cell viability (real-time) [5]: had a demonstrable effect on viability at 2 μg/ml | Effect on cell viability (real-time) [6]: had a demonstrable effect on viability at 2 μg/ml | IC50 [7]: > 7 µg/mL
